Assay results from ChEMBL document CHEMBL3885861, “Open TG-GATES”.

Species: Rattus norvegicus
Assay: Open TG-GATES - Regimen: Single
Assay type: toxicity, organism-based, Sprague-Dawley
Set-up: regimen Single, gender Male, age 6 weeks
Conditions: in vivo, po, 0 mg/kg, route gavage, dose level Control; for APTT / Bas / Eos / Fbg / Hb / Lym / MCH / MCHC / MCV / Mono / Neu / PT / Plat / RBC / Ret / WBC: tissue Blood; for KIDNEY_L / KIDNEY_R / KIDNEY_TOTAL: tissue Kidney; for LIVER: tissue Liver; for ALP / ALT / AST / BUN / CRE / Ca / Cl / DBIL / GLC / IP / K / LDH / Na / PL / RALB / TBIL / TC / TG / TP / gamma-GTP: tissue Plasma

OCCN1CCN(CCCN2c3ccccc3Sc3ccc(C(F)(F)F)cc32)CC1 [FLUPHENAZINE]
TERMINAL_BW (3 h): 199 g
APTT (3 h): 16.1 s
Bas (3 h): 0%
Eos (3 h): 0.6%
Fbg (3 h): 228.2 mg/dL
Hb (3 h): 13.1 g/dL
Lym (3 h): 80.4%
MCH (3 h): 21.2 pg
MCHC (3 h): 33%
MCV (3 h): 64.3 fL
Mono (3 h): 6.8%
Neu (3 h): 12.2%
PT (3 h): 12.5 s
Plat (3 h): 106.1 x10_4/uL
RBC (3 h): 617.6 x10_4/ul
Ret (3 h): 7.6%
WBC (3 h): 113.1 x10_2/uL
KIDNEY_L (3 h): 0.9 g
KIDNEY_R (3 h): 0.9 g
KIDNEY_TOTAL (3 h): 1.9 g
LIVER (3 h): 9.6 g
ALP (3 h): 888.6 IU/L
ALT (3 h): 34.8 IU/L
AST (3 h): 63.4 IU/L
BUN (3 h): 13 mg/dL
CRE (3 h): 0.5 mg/dL
Ca (3 h): 10.9 mg/dL
Cl (3 h): 104.2 meq/L
DBIL (3 h): 0.006 mg/dL
GLC (3 h): 179 mg/dL
IP (3 h): 10.3 mg/dL
K (3 h): 5.1 meq/L
LDH (3 h): 86.2 IU/L
Na (3 h): 138 meq/L
PL (3 h): 154.2 mg/dL
RALB (3 h): 3.9 g/dL
TBIL (3 h): 0.3 mg/dL
TC (3 h): 85.8 mg/dL
TG (3 h): 53.6 mg/dL
TP (3 h): 5.5 g/dL
gamma-GTP (3 h): 1.4 IU/L
TERMINAL_BW (6 h): 196.6 g
APTT (6 h): 16.4 s
Bas (6 h): 0%
Eos (6 h): 1%
Fbg (6 h): 214.4 mg/dL
Hb (6 h): 13 g/dL
Lym (6 h): 75.8%
MCH (6 h): 21.6 pg
MCHC (6 h): 33.2%
MCV (6 h): 65.1 fL
Mono (6 h): 8.2%
Neu (6 h): 15.4%
PT (6 h): 12.8 s
Plat (6 h): 108.7 x10_4/uL
RBC (6 h): 601.2 x10_4/ul
Ret (6 h): 8.4%
WBC (6 h): 105.2 x10_2/uL
KIDNEY_L (6 h): 0.9 g
KIDNEY_R (6 h): 0.9 g
KIDNEY_TOTAL (6 h): 1.8 g
LIVER (6 h): 8.6 g
ALP (6 h): 819.6 IU/L
ALT (6 h): 33.6 IU/L
AST (6 h): 67.4 IU/L
BUN (6 h): 11.2 mg/dL
CRE (6 h): 0.5 mg/dL
Ca (6 h): 10.2 mg/dL
Cl (6 h): 105.8 meq/L
DBIL (6 h): 0.03 mg/dL
GLC (6 h): 180.8 mg/dL
IP (6 h): 10 mg/dL
K (6 h): 4.7 meq/L
LDH (6 h): 93 IU/L
Na (6 h): 137 meq/L
PL (6 h): 118.2 mg/dL
RALB (6 h): 3.6 g/dL
TBIL (6 h): 0.4 mg/dL
TC (6 h): 65.8 mg/dL
TG (6 h): 36.8 mg/dL
TP (6 h): 5.3 g/dL
gamma-GTP (6 h): 1.6 IU/L
TERMINAL_BW (9 h): 197.8 g
APTT (9 h): 16.6 s
Bas (9 h): 0%
Eos (9 h): 0.8%
Fbg (9 h): 220.8 mg/dL
Hb (9 h): 12.6 g/dL
Lym (9 h): 77.6%
MCH (9 h): 21.7 pg
MCHC (9 h): 33.1%
MCV (9 h): 65.6 fL
Mono (9 h): 9%
Neu (9 h): 13.2%
PT (9 h): 12.5 s
Plat (9 h): 111.9 x10_4/uL
RBC (9 h): 581.6 x10_4/ul
Ret (9 h): 8.6%
WBC (9 h): 107.8 x10_2/uL
KIDNEY_L (9 h): 0.9 g
KIDNEY_R (9 h): 0.9 g
KIDNEY_TOTAL (9 h): 1.9 g
LIVER (9 h): 8.6 g
ALP (9 h): 831.6 IU/L
ALT (9 h): 29.2 IU/L
AST (9 h): 58.8 IU/L
BUN (9 h): 11.8 mg/dL
CRE (9 h): 0.5 mg/dL
Ca (9 h): 10.3 mg/dL
Cl (9 h): 103.8 meq/L
DBIL (9 h): 0.012 mg/dL
GLC (9 h): 186.4 mg/dL
IP (9 h): 10.2 mg/dL
K (9 h): 4.6 meq/L
LDH (9 h): 86.4 IU/L
Na (9 h): 137.2 meq/L
PL (9 h): 145 mg/dL
RALB (9 h): 3.7 g/dL
TBIL (9 h): 0.3 mg/dL
TC (9 h): 84.6 mg/dL
TG (9 h): 46.8 mg/dL
TP (9 h): 5.4 g/dL
gamma-GTP (9 h): 1.2 IU/L
TERMINAL_BW (24 h): 211.2 g
APTT (24 h): 16.8 s
Bas (24 h): 0%
Eos (24 h): 0.2%
Fbg (24 h): 217.6 mg/dL
Hb (24 h): 12.9 g/dL
Lym (24 h): 80.8%
MCH (24 h): 22.4 pg
MCHC (24 h): 33.4%
MCV (24 h): 67.1 fL
Mono (24 h): 7.4%
Neu (24 h): 11.4%
PT (24 h): 12 s
Plat (24 h): 113.4 x10_4/uL
RBC (24 h): 574.6 x10_4/ul
Ret (24 h): 8%
WBC (24 h): 137.9 x10_2/uL
KIDNEY_L (24 h): 0.9 g
KIDNEY_R (24 h): 1 g
KIDNEY_TOTAL (24 h): 1.9 g
LIVER (24 h): 10.7 g
ALP (24 h): 951.8 IU/L
ALT (24 h): 38.6 IU/L
AST (24 h): 69.6 IU/L
BUN (24 h): 18.8 mg/dL
CRE (24 h): 0.5 mg/dL
Ca (24 h): 11.1 mg/dL
Cl (24 h): 104.2 meq/L
DBIL (24 h): 0.012 mg/dL
GLC (24 h): 183.8 mg/dL
IP (24 h): 8.8 mg/dL
K (24 h): 4.9 meq/L
LDH (24 h): 107.4 IU/L
Na (24 h): 137.4 meq/L
PL (24 h): 160.8 mg/dL
RALB (24 h): 4 g/dL
TBIL (24 h): 0.3 mg/dL
TC (24 h): 80 mg/dL
TG (24 h): 134.2 mg/dL
TP (24 h): 5.8 g/dL
gamma-GTP (24 h): 1.8 IU/L
